Patent publication US9034886B2, “4-aminoquinazoline derivatives and uses thereof” (Shanghai Institute of Pharmaceutical Industry, priority 2011, dated 2015)

Columns and labels:
[1] = test system: K562 human chronic myelogenous leukemia cells; assay: In vitro anti-proliferative effect, CCK-8 method, K562; assay type: cell-based; details: Homo sapiens, K562
Protocol: (§1) The inhibitory activities of the compounds towards Hut78 T lymphocytic leukemia cells, Jurkat E6-1 human T-cell lymphoma, PANC-1 human pancreatic cancer cells, A549 human lung cancer cells, K562 human chronic myelogenous leukemia cells, Hep3B2.1-7 human liver cancer cells, MDA-MB-435s human breast cancer cells. Colo320 human colorectal cancer cell lines, and PC-3 human prostate cancer at two concentrations of 100 μM and 10 μM were determined. The inhibition percentages were obtained through CCK-8 method.

[2] = test system: Hep3B2.1-7 human liver cancer cells; assay: In vitro anti-proliferative effect, CCK-8 method, Hep3B; assay type: cell-based; details: Homo sapiens, Hep3B cell strain, CCK-8 method; for inhibition at 10 µM: compound at 10 μM; for inhibition at 100 µM: compound at 100 μM
Protocol: as §1

[3] = test system: A549 human lung cancer cells; assay: In vitro anti-proliferative effect, CCK-8 method, A549; assay type: cell-based; details: Homo sapiens, A549
Protocol: as §1

HDAC1 = HDAC1 (Homo sapiens (Human), UniProt Q13547); assay: In vitro inhibition of subtype HDAC1 (HDAC1 Inhibitor Drug Screening Kit, Biovision); assay type: biochemical; details: for inhibition at 1 µM / inhibition at 10 µM: read-out: % Inhibition towards HDAC1; for inhibitory activity against HDAC1 compared with MS-275: both concentrations 10 μM and 1 μM
Sequence of HDAC1 (Q13547 whole entry): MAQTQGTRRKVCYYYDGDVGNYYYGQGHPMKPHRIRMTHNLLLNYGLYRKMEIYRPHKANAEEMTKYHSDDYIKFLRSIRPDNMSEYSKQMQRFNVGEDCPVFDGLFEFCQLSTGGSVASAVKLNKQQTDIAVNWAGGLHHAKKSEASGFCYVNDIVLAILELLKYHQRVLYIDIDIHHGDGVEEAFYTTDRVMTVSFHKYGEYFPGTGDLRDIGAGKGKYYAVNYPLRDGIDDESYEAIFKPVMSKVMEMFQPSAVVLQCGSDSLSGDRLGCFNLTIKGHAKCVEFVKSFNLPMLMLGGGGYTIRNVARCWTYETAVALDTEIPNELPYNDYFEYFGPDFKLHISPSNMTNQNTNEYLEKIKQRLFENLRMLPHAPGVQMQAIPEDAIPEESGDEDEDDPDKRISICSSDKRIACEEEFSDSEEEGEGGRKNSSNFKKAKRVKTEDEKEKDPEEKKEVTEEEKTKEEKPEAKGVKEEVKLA
Protocol: The in vitro inhibitory activities of the compounds towards the subtype HDAC1 were tested according to the instructions in the HDAC1 Inhibitor Drug Screening Kit (Biovision).
(1) The compounds to be tested were each individually prepared as 10 μM and 1 μM solutions and their inhibitory activities at these concentrations were tested.
Each dilution sample was placed in two wells and the enzyme inhibition IC50 of the compound was tested.

[4] = test system: MDA-MB-435s human breast cancer cells; assay: In vitro anti-proliferative effect, CCK-8 method, MDA-MB-435s; assay type: cell-based; details: Homo sapiens, MDA-MB-435S
Protocol: as §1

[5] = test system: Colo320 human colorectal cancer cell lines; assay: In vitro anti-proliferative effect, CCK-8 method, Colo320; assay type: cell-based; details: Homo sapiens, COLO 320, Colo320 cell strain, CCK-8 method; for inhibition at 10 µM: compound at 10 μM; for inhibition at 100 µM: compound at 100 μM
Protocol: as §1

[6] = test system: Hut78 T lymphocytic leukemia cells; assay: In vitro anti-proliferative effect, CCK-8 method, Hut78; assay type: cell-based; details: Homo sapiens, HuT78, read-out: Hut-78 (inhibition %)
Protocol: as §1

HDACs = assay: In vitro inhibition of HDACs (HDAC Inhibitor Drug Screening Kit, Biovision K340-100); assay type: biochemical
Protocol: The in vitro inhibitory activities of the compounds towards HDACs were tested according to the instructions in the HDAC Inhibitor Drug Screening Kit (Biovision/Catalog #K340-100).
(1) The compounds to be tested were each individually prepared as 2 mM, 200 μM and 40 μM solutions and their inhibitory activities at these concentrations were tested.

[7] = test system: PANC-1 human pancreatic cancer cells; assay: In vitro anti-proliferative effect, CCK-8 method, PANC-1; assay type: cell-based; details: Homo sapiens, PANC-1
Protocol: as §1

[8] = test system: PC-3 human prostate cancer; assay: In vitro anti-proliferative effect, CCK-8 method, PC-3; assay type: cell-based; details: Homo sapiens, PC-3 cell strain, CCK-8 method; for inhibition at 10 µM: compound at 10 μM; for inhibition at 100 µM: compound at 100 μM
Protocol: as §1

[9] = test system: Jurkat E6-1 human T-cell lymphoma; assay: In vitro anti-proliferative effect, CCK-8 method, Jurkat E6-1; assay type: cell-based; details: Homo sapiens, Jurkat E6.1
Protocol: as §1

Row | inhibition at 1 µM (HDAC1) [%] | inhibition at 10 µM (HDAC1) [%] | Structure (SMILES) | inhibition at 10 µM [1] [%] | inhibition at 100 µM [1] [%] | inhibition at 10 µM [2] [%] | inhibition at 100 µM [2] [%] | inhibition at 10 µM [3] [%] | inhibition at 100 µM [3] [%] | inhibition at 10 µM [4] [%] | inhibition at 100 µM [4] [%] | inhibition at 10 µM [5] [%] | inhibition at 100 µM [5] [%] | inhibition at 10 µM [6] [%] | inhibition at 100 µM [6] [%] | Inhibition percentage (%) towards HDACs (HDACs; 40 μM) [%] | Inhibition percentage (%) towards HDACs (HDACs; 200 μM) [%] | Inhibition percentage (%) towards HDACs (HDACs; 2 mM) [%] | inhibition at 10 µM [7] [%] | inhibition at 100 µM [7] [%] | inhibition at 10 µM [8] [%] | also measured
1 | 45.2 | 62.6 | COc1cccc2c(Nc3ccc(C(=O)Nc4cc(F)ccc4N)cc3)ncnc12 [Compound V-10, N-(2-amino-5-fluorophenyl)-4-(8-methoxy-quinazoline-4-amino)benzamide] | 45 | 62.1 | 3.7 | 31.3 | -4.4 | 40.1 | 9.4 | 82.9 | 6.4 | 23.3 | 8.1 | 47.5 | 12.0 | 32.9 | 77.2 | 13 | 19 | 13.7 | IC50 (HDACs): 1040 nM; inhibitory activity according to in vitro IC50 value against HDACs compared with MS-275 (HDACs): better inhibitory activities than MS-275; inhibition at 100 µM [8]: 57.4%; inhibition at 10 µM [9]: 25.3%; inhibition at 100 µM [9]: 72.8%
2 | 15 | 49.1 | Nc1ccccc1NC(=O)c1ccc(Nc2ncnc3ccc(F)cc23)cc1 [Compound V-12, N-(2-aminophenyl)-4-(6-fluoroquinazoline-4-amino)benzamide] | 49.3 | 69.8 | 4.7 | 67.1 | -9 | 55.1 | 5.7 | 77.2 | 2.4 | 46.1 | 62.5 | 62.5 | 16.8 | 43.0 | 85.2 | 15.8 | 21.9 | 25.5 | IC50 (HDACs): 920 nM; inhibition at 100 µM [8]: 61.3%; inhibition at 10 µM [9]: 25%; inhibition at 100 µM [9]: 87.4%
3 | 67.1 | 78.8 | COCCOc1cc2ncnc(Nc3ccc(C(=O)Nc4ccccc4N)cc3)c2cc1OCCOC [Compound V-15, N-(2-aminophenyl)-4-(6,7-dimethoxyethoxyquinazoline-4-amino)benzamide] | 27.2 | 11.9 | 16.3 | 11.2 | 4.7 | 3.5 | 21.6 | 21 | 15.3 | 3.9 | 70.7 | 80.4 | 13.7 | 51.5 | 61.4 | 7.2 | 0.5 | 10.9 | inhibitory activity against HDAC1 compared with MS-275 (HDAC1): superior to that of MS-275; IC50 (HDACs): 9400 nM; inhibition at 100 µM [8]: 8.6%; inhibition at 10 µM [9]: 33.7%; inhibition at 100 µM [9]: 13.9%
4 | 59.1 | 87.4 | COCCOc1cc2ncnc(Nc3ccc(C(=O)Nc4ccncc4N)cc3)c2cc1OCCOC [Compound V-16] | 42.8 | 29.7 | 24.8 | 13.5 | 48.7 | 65.7 | 49.8 | 50.4 | -2.3 | -17.1 | 26.2 | 20.7 | 24.8 | 56.8 | 58.6 | 8 | 7.8 | 5.1 | inhibitory activity against HDAC1 compared with MS-275 (HDAC1): superior to that of MS-275; IC50 (HDACs): 6890 nM; inhibition at 100 µM [8]: 3.4%; inhibition at 10 µM [9]: 37.2%; inhibition at 100 µM [9]: 22.1%
5 | 47.6 | 80.2 | CS(=O)(=O)CCNCc1ccc(-c2ccc3ncnc(Nc4ccc(C(=O)Nc5ccccc5N)cc4)c3c2)o1 [Compound V-19, N-(2-aminophenyl)-4-[6-(5-((2-(methylsulfonyl)ethylamino)methyl)furyl)quinazoline-4-amino]benzamide] | 54.3 | 85.8 | 25.4 | 49.9 | 6.3 | 37.3 | 33 | 77 | 12.9 | 40.1 | 43 | 77 | 22.7 | 57.8 | 72.3 | 20.2 | 26.2 | 50.2 | inhibitory activity against HDAC1 compared with MS-275 (HDAC1): superior to that of MS-275; IC50 (HDACs): 1370 nM; inhibition at 100 µM [8]: 61%; inhibition at 10 µM [9]: 58.3%; inhibition at 100 µM [9]: 80.9%
6 | 55 | 86.9 | CC(=O)Nc1ccc2ncnc(Nc3ccc(C(=O)Nc4ccccc4N)cc3)c2c1 [Compound V-21, N-(2-aminophenyl)-4-(6-acetamidoquinazoline-4-amino)benzamide] | 52.2 | 85.2 | 11 | 68.1 | 17.1 | 96.4 | 25.2 | 88.8 | 9.5 | 45.9 | 65.2 | 75.6 | 10.1 | 39.1 | 79.2 | 12.5 | 33.3 | 40.1 | inhibitory activity against HDAC1 compared with MS-275 (HDAC1): superior to that of MS-275; inhibition at 100 µM [8]: 64.2%; inhibition at 10 µM [9]: 49.3%; inhibition at 100 µM [9]: 89.7%
7 | 19.2 | 55.8 | COc1cc2ncnc(Nc3ccc(C(=O)Nc4cc(-c5cccs5)ccc4N)cc3)c2cc1OC [Compound V-23, N-[2-amino-5-(2-thienyl)phenyl]-4-(6,7-dimethoxyquinazoline-4-amino)benzamide] | 12.8 | 61.2 | 1 | 28.1 | -7.4 | 6.2 | 21.5 | 42.9 | 7.3 | 5.9 | 59.9 | 93.1 | 17.5 | 37.3 | 40.7 | 9.2 | 4 | 7 | IC50 (HDAC1): 178 nM; inhibition at 100 µM [8]: 40.2%; inhibition at 10 µM [9]: 4.7%; inhibition at 100 µM [9]: 52.7%
